Results reported in patent publication US9023831B2, “Methods and compositions of inhibiting complement and cellular activation with Dextran Sulfate” (Novelmed Therapeutics, Inc., priority 2007, dated 2015).
Several values for one entry are separate records, joined by “and”; a condition that tells them apart may be missing. Equal entries are not always repeated. Entries after “also recorded” stand apart in the source; their conditions may differ.

How the values were obtained:
[1] = target: T1, human properdin (or factor P) (Homo sapiens, UniProt P27918); test: Properdin binding to substrate-bound Dextran Sulfate (ELISA); settings: substrate-bound Dextran Sulfate on microtiter plate; read-out: affinity of properdin binding to Dextran Sulfate (concentration of properdin at 50% maximal binding)
T1 construct: purchased Advanced Research Technology, San Diego, Calif; A139
Procedure: The binding of properdin appears to be specific and dose dependent. Leading to an affinity of 4 nM. […] Wells without Dextran Sulfate coating serve as background controls. […] Properdin solution was added to the appropriate wells.

[2] = test system: Alternative Pathway Dependent C3b formation in Normal Human Serum; test: Alternative pathway-dependent C3b assay on LPS coated plates; type: biochemical; settings: for inhibition of C3b formation: increasing concentrations
Description: As a result, C3b is generated and is deposited on to LPS. […] LPS bound C3b was detected with a rabbit anti-human C3c antibody (Dako Corp). Rabbit antibody bolund to C3b was detected with peroxidase-conjugated goat anti-rabbit polyclonal antibody. Peroxidase was detected with TMB substrate using common methods.
It was of interest to us to determine whether the Dextran Sulfate might appreciably affect the C3b generation, an important component of the amplification loop of the complement cascade. To analyze the effects of the Dextran Sulfate on C3b formation via the alternative pathway, an assay was utilized in which bacterial LPS was used as a substrate to initiate the alternative complement pathway cascade. […] Microtiter wells were coated with LPS (2 μg/50 μl per well) in VBS overnight at 4° C. Uncoated wells served as background controls. After aspirating the LPS solution, wells were treated with blocking solution and incubated with various concentrations of normal human serum. Following a 2 hour incubation at 37° C., deposited C3b was detected with rabbit anti-human C3c polyclonal antibody (Accurate Biochemicals) using standard ELISA methodologies essentially as described in the Examples above. […] The amount of inhibition of soluble C3b deposition was determined using the antibody detection system described in the Examples above.

[3] = test system: monocytes (CD11b expression); test: Monocyte activation (CD11b flow cytometry) after tubing loop; type: cell-based, human
Description: Same samples of blood following the tubing loop were also subjected to monocyte specific flow cytometry. […] Similar data was obtained with multiple donors. In the Figure are shown Rotated Control (blood sample in tubing loop), Unrotated controls (samples taken out before tubing loop). Unrotated represents the background controls.
The activation of neutrophils, monocyte and platelets were quantitated by measuring the levels of the cell-surface expression of CD11b and CD62P on neutrophils/monocytes and platelets, respectively. For CD11b labeling of neutrophils, 200 μl of whole blood collected from the circuits were immediately incubated with 20 μl of phycoerythrin (PE)-anti-CD11b antibody (Becton Dickinson, San Jose, Calif.) for 20 minutes at room temperature in a microcentrifuge tube. Then 2 ml of FACS Lysing Solution (Becton Dickinson) was added for 20 minutes at room temperature to lyse red blood cells and to fix leukocytes. The microcentrifuge tubes were centrifuged at 300 g for 5 minutes for leukocytes and 1200 g for platelets. The supernatant was aspirated and the cells resuspended in PBS for washing. The tubes were spun again, the supernatant aspirated, and the cells finally resuspended in 0.5 ml of 1% paraformaldehyde overnight prior to analysis using an BD-LSR flow cytometer (BD Biosciences). For double labeling to concomitantly identify the neutrophil population, 10 μl of fluorescein isothiocyanate (FITC)-anti-CD15 antibody (clone MMA, Becton Dickinson) were added for incubation together with PE-anti-CD11b antibody to stain neutrophils and anti-CD14 (FITC) along with PE-CD11b was used for monocytes.
Neutrophils bear both C3a and C5a receptors. Thus, prevention of C3a/C5a production should have direct effect on CD11b expression. Monocytes have been known to bear the C3a receptors. C3a produced because of complement activation is known to activate monocytes.

[4] = test system: Complement Activity in Whole Blood Following Tubing Loop Model; test: rRBC hemolysis with plasma after tubing loop model; settings: for inhibition of rRBC hemolysis: plasma 10% in AP buffer
Procedure: Lightscattering was measured as a function of time. […] X-axis is time of hemolysis in seconds and Y-axis is scattering at 700 nm Methods: Whole heparinized blood was diluted with plasmalyte to 50% in the presence or absence of NM3014. Samples were centrifuged, and plasma was subjected to hemolysis assay. Plasma final concentration as 10% in GVB (GVB containing 10 mM MgCl2, 5 mM EGTA). rRBC was added and hemolysis of all samples were recorded.
Plasma aliquots for the alternative pathway hemolytic assays: Plasma samples were subjected to alternative pathway dependent hemolytic assay using AP buffer (GVB containing 10 mM magnesium chloride, 5 mM EGTA). Plasma concentrations were adjusted to 10% final in AP buffer. rRBC were incubated at 37° and the extent of hemolysis was obtained using kinetic run (SoftMax Pro, Molecular Devices, CA).

arthritic Lewis rats = test: Joint inflammation and bone destruction in Rat-AIA (CFA-induced arthritis); type: in vivo
Procedure: Lewis male rats were used to examine the effect of Dextran Sulfate combination with aggrastat (molecular weight 40,000 and 5,000) for the treatment of arthritis. Arthritis was induced in adult male Lewis rats (200-225 gm) by an intradermal injection of complete Freund's adjuvant (CFA) at the base of the tail on the dorsal side. The CFA (100 mg dried and heat killed Mycobacterium butyricum (Difco, Detroit, Mich.) emulsified in 10 ml sterile mineral oil) was prepared by grinding the bacteria powder with a mortar and pestle until the bacterial cell wall turned from a light beige to an eggshell white powder. The mineral oil was then slowly mixed into the bacterial cell wall using the mortar and pestle. All animals in each experiment were challenged with the same preparation of adjuvant and nearly 100% of the animals developed arthritis. Dextran Sulfate was obtained from Sigma Aldrich Corp and Aggrastat was purchased from the pharmacy. Dextran Sulfate was dissolved in aggrastat. The drug treatment started on day 10 post-immunization, the time of disease onset, and continued until sacrifice. The dose of Dextran Sulfate was 20 & 10 mg/Kg/per day per 150-200 g rat. The inflammatory response was assesed by the measurement of paw volume. Paw volume appears to be very consistent and gave slow increasing arthritis over time. Paw volumes were measured every day until sacrifice using Plethysmometer (IITC). After the sacrifice/euthanasia, limbs were removed and processed for;
a) histological evaluations: Only three animals were used per group. Sections were stained with Eosin and hematoxylin to identify various regions within the inflamed limb. Untreated controls have intact cartilage layer and the bone (Score 0) and clear synovium without pannus. Arthritic controls had no defined cartilage bone, and have pannus layer and significant inflammation (Score 5). Enbrel was used as positive control. […] We gave a score of 2.
b) Paw Swelling: Each paw was measured for water displacement using plethysmometer. Paw volume was measured every day.
Continuous treatment of Dextran Sulfate therapies from disease onset affected paw swelling in arthritic rats. All adjuvant-challenged rats developed AA between days 10-12. […] While inflammation was decreased in these treatment groups, we observed a greater effect for these drugs in prevention of bone and cartilage destruction.

T1 sequence (P27918 28-469): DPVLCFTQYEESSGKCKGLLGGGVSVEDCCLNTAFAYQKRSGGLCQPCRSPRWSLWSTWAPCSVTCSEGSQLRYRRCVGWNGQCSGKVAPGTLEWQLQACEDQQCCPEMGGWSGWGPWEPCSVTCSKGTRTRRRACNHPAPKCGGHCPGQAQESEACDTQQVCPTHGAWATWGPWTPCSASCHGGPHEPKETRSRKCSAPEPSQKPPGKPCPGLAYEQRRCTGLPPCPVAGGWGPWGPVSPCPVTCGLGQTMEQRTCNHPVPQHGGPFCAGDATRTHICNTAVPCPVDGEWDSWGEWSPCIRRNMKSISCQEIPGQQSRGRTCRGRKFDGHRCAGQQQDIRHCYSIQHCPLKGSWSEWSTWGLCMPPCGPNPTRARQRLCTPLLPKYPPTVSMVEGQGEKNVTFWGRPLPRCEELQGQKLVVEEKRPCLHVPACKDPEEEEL

Substance: Dextran Sulfate [NM3014]
- Kd [1]: 4 nM and ~4 nM
- IC50 of inhibition of C3b formation ([2]; 10% normal human serum): 7 to 10 µg/mL
- inhibition of C3b formation [2]: inhibited C3b formation in a dose dependent manner
- inhibition of C3b formation ([2]; listed as Dextran Sulfate): completely prevents C3b generation in a dose dependent manner
- inhibition of monocyte activation ([3]; 40 μg/ml): no effect
- inhibition of monocyte activation ([3]; 100 μg/ml): inhibited; also recorded: prevents monocyte activation
- inhibition of monocyte activation ([3]; 100 μg/ml, listed as Dextran Sulfate): down regulates CD11b expression
- inhibition of rRBC hemolysis ([4]; 100 μg/ml): complete inhibition of hemolysis
- inhibition of rRBC hemolysis ([4]; 200 μg/ml): complete inhibition of hemolysis
- inhibition of rRBC hemolysis ([4]; 400 μg/ml): complete inhibition of hemolysis
- inhibition of rRBC hemolysis ([4]; 800 μg/ml): complete inhibition of hemolysis
- inhibition of complement activity in human plasma (hemolysis) ([4]; 100, 400, 800 μg/ml lines of FIG. 10a): inhibits complement activity
- inhibition of rRBC hemolysis ([4]; around 40 μg/ml): No inhibition
- soft tissue swelling (arthritic Lewis rats; by day 28 post-adjuvant injection, vs vehicle-treated AA rats): significantly decreased
- paw swelling (paw volume, plethysmometer) (arthritic Lewis rats; with Aggrastat, compared to untreated controls, listed as Dextran Sulfate 40,000 molecular weight): significantly decreased
